Data from EP2933270B1, “ARTEANNUIN CYCLODEXTRIN CONJUGATE AND PREPARING METHOD THEREOF” (KPC Pharmaceuticals, Inc., priority 2012, dated 2014).
Where two headings read alike, the source gives them in different places. Each block holds one compound with its values, some of them ahead of it.

Key:
Solubility in water = experiment: Solubility in water
From the text: The arteannuin-cyclodextrin conjugate according to the present invention uses a cyclodextrin as a carrier, and a molecule of an arteannuin compound is connected, via an amide bond formed between the carboxyl group thereof and any amine group of the cyclodextrin modified by an amine group, to the cyclodextrin.

hepatocarcinoma H22 = details: mice, 300 mg/kg by gavage; cited from earlier work
Hep2 hepatoma = details: mice, intraperitoneal injection, 60 mg/kg; cited from earlier work
SW480 = experiment: MTT assay, growth inhibition of human rectal cancer cells; type: cell-based; details: 48 h
Protocol: (§1) For example, 180 µl suspension of human rectal cancer cells HCT116, Lovo, SW480 and HT29 at a concentration of 4×10^4/mL is added to 96-well culture plate, and pre-cultured under the conditions of 5% CO2, 37°C and saturated moisture for 24h. After 150 µl medium is replaced, 20 µl medium containing molecular assembly at different concentrations is added, and cultured for another 48 h, with the medium free of a sample as a negative control, and a medium containing camptothecin, oxaliplatin and fluorouracil at different concentrations as a positive control. MTT assay is used to determine the OD value, and to calculate the growth inhibition rate. The inhibition of compounds at high, medium and low concentrations on the tumor cell proliferation is observed. All the experiments above are performed in triplet. Results for in vitro experiment of the arteannuin-cyclodextrin conjugate with respect to human rectum and caecum cancer cells are shown in table 1. Table 1 IC50 value (µM) for certain arteannuin compounds in several rectum cancer cells

Lovo = experiment: as above; type: cell-based; details: 48 h
Protocol: as §1

HT29 = experiment: as above; type: cell-based; details: 48 h
Protocol: as §1

HCT116 = experiment: as above; type: cell-based
Protocol: as §1

[1] = Homo sapiens, HT-29, HT 90 [sic] cells (method: HT29)
[2] = HT 90 [sic] cells (method: HT29)
[3] = isolated product of the example

solubility in water (Solubility in water; in water): almost insoluble in water
Compound: C[C@@H]1CC[C@H]2[C@@H](C)C(=O)O[C@@H]3O[C@@]4(C)CC[C@@H]1[C@]32OO4 [arteannuin]

solubility in water (Solubility in water; in water): almost insoluble in water
IC50 (SW480; Homo sapiens): 1.82 µM
IC50 (Lovo; Homo sapiens): 2.6 µM
IC50 (HT29; [1]): 9.11 µM
IC50 (HCT116; Homo sapiens, HCT-116, 48 h): 1.04 µM
Compound: C[C@H]1[C@H](OC(=O)CCC(=O)O)O[C@@H]2O[C@@]3(C)CC[C@H]4[C@H](C)CC[C@@H]1[C@@]24OO3 [artesunate]
anti-tumor rate (hepatocarcinoma H22): ≥ 40%
anti-tumor rate (Hep2 hepatoma): 80.4%

solubility in water (Solubility in water): almost insoluble in water
IC50 (SW480; Homo sapiens): 14.1 µM
IC50 (Lovo; Homo sapiens): 2.11 µM
IC50 (HT29; [1]): 21.1 µM
IC50 (HCT116; Homo sapiens, HCT-116, 48 h): 1.76 µM
Compound: C[C@H]1[C@@H](O)O[C@@H]2O[C@@]3(C)CC[C@H]4[C@H](C)CC[C@@H]1[C@@]24OO3 [dihydroarteannuin]

IC50 (SW480; Homo sapiens): 30.8 µM
IC50 (Lovo; Homo sapiens): 23 µM
IC50 (HT29; [1]): 38.5 µM
IC50 (HCT116; Homo sapiens, HCT-116, 48 h): 5.4 µM
Compound: O=c1[nH]cc(F)c(=O)[nH]1 [fluorouracil]

More lines, now with the values behind:

Compound: O=C1[O][Pt]2([NH][C@@H]3CCCC[C@H]3[NH]2)[O]C1=O [oxaliplatin]
IC50 (SW480): 30.1 µM
IC50 (Lovo): 1.51 µM
IC50 (HT29; [2]): 9.7 µM
IC50 (HCT116; 48 h): 0.76 µM

Compound: conjugate of mono-[6-(ethanediamine)-6-deoxy]-β-cyclodextrin and the compound in which C-12 of the arteannuin was connected with a phenoxy group [Example 5]
solubility (Solubility in water): 68 mg/mL

Compound: conjugate of mono-[6-(monoamine)-6-deoxy]-β-cyclodextrin and the compound in which C-12 of the arteannuin was connected with a phenoxy group [Example 6]
solubility (Solubility in water; [3]): 54 mg/mL

Compound: mono-[6-(ethanediamine)-6-deoxy]-β-cyclodextrin-artesunate conjugate [Example 1]
solubility (Solubility in water; [3]): 68 mg/mL
IC50 (SW480): 3.89 µM
IC50 (Lovo): 1.62 µM
IC50 (HT29; [2]): 5.18 µM
IC50 (HCT116; 48 h): 0.58 µM
